Results taken from BindingDB's records for doi:10.1021/jm00029a008 (Dupont Pharmaceuticals, 1994).
pKi: −log10 of the molar value. Counter-ions that a name gives are not always drawn.

What was measured:
[1] = Binding affinity for sigma receptor of guinea pig whole brain using [3H]-[…] radioligand
[2] = molecular target: D(2) dopamine receptor (guinea pig); assay: Binding affinity for dopamine D2 receptor using [3H]spiperone in guinea pig striatum

Structure (SMILES)	pKi [1]	pKi [2]
O=C1c2ccccc2CCC12CCN(Cc1ccc(F)cc1)CC2 [1'-(4-fluorobenzyl)spiro[1,2,3,4-tetrahydronaphthalene-2,4'-(hexahydropyridine)]-1-one; hydrochloride]	8.40	
O=C1c2ccccc2CCC1C1CCN(Cc2ccccc2)CC1 (centres undefined) [2-(1-Benzyl-piperidin-4-yl)-3,4-dihydro-2H-naphthalen-1-one; hydrochloride]	8.40	6.00
O=C1c2ccc(Cl)cc2CCC12CCN(CCc1ccccc1)CC2 [6-chloro-1'-phenethylspiro[1,2,3,4-tetrahydronaphthalene-2,4'-(hexahydropyridine)]-1-one]	7.46	
O=C1c2ccc(Cl)cc2CCC1C1CCN(CCc2ccccc2)CC1 (centres undefined) [6-Chloro-2-(1-phenethyl-piperidin-4-yl)-3,4-dihydro-2H-naphthalen-1-one; hydrochloride]	8.05	
Cc1ccc(CN2CCC(C3CCc4ccccc4C3=O)CC2)cc1 (centres undefined) [2-[1-(4-Methyl-benzyl)-piperidin-4-yl]-3,4-dihydro-2H-naphthalen-1-one; hydrate]	8.10	
O=C1c2ccccc2CCC12CCN(Cc1ccc(C(F)(F)F)cc1)CC2 [1'-(4-trifluoromethylbenzyl)spiro[1,2,3,4-tetrahydronaphthalene-2,4'-(hexahydropyridine)]-1-one; malate]	7.62	
O=C1CCc2ccccc2C12CCN(CCc1ccccc1)CC2 [1'-phenethylspiro[1,2,3,4-tetrahydronaphthalene-1,4'-(hexahydropyridine)]-2-one]	7.89	< 5.00
CC(C)(C)c1ccc(CN2CCC3(CCc4ccccc4C3=O)CC2)cc1 [1'-[4-(tert-butyl)benzyl]spiro[1,2,3,4-tetrahydronaphthalene-2,4'-(hexahydropyridine)]-1-one; hydrochloride]	7.82	
O=C1c2ccccc2CCC12CCN(Cc1ccc([N+](=O)[O-])cc1)CC2 [1'-(4-nitrobenzyl)spiro[1,2,3,4-tetrahydronaphthalene-2,4'-(hexahydropyridine)]-1-one; hydrochloride]	8.72	5.71
O=C1c2ccccc2CCC12CCN(Cc1ccc3ccccc3c1)CC2 [1'-(2-naphthylmethyl)spiro[1,2,3,4-tetrahydronaphthalene-2,4'-(hexahydropyridine)]-1-one ;malate]	7.96	< 5.00
O=C1c2ccccc2CCC1C1CCN(Cc2ccc(F)cc2)CC1 (centres undefined) [2-[1-(4-Fluoro-benzyl)-piperidin-4-yl]-3,4-dihydro-2H-naphthalen-1-one; hydrochloride]	7.96	7.21
O=C1c2ccc(F)cc2CCC1C1CCN(Cc2ccccc2)CC1 (centres undefined) [2-(1-Benzyl-piperidin-4-yl)-6-fluoro-3,4-dihydro-2H-naphthalen-1-one]	8.05	7.21
COc1ccc(CN2CCC3(CCc4ccccc4C3=O)CC2)cc1 [1'-(4-methoxybenzyl)spiro[1,2,3,4-tetrahydronaphthalene-2,4'-(hexahydropyridine)]-1-one; hydrochloride]	8.52	
O=C1c2ccccc2CCC1C1CCN(CC2CC2)CC1 (centres undefined) [2-(1-Cyclopropylmethyl-piperidin-4-yl)-3,4-dihydro-2H-naphthalen-1-one; hydrobromide]	7.59	5.97
CC(C1CC1)N1CCC(C2CCc3ccccc3C2=O)CC1 (centres undefined) [2-[1-(1-Cyclopropyl-ethyl)-piperidin-4-yl]-3,4-dihydro-2H-naphthalen-1-one; hydrobromide]	7.59	
O=C1c2ccccc2CCC12CCN(Cc1ccccc1)CC2	9.00	
COc1ccc2c(c1)CCC(C1CCN(Cc3ccccc3)CC1)C2=O (centres undefined) [2-(1-Benzyl-piperidin-4-yl)-6-methoxy-3,4-dihydro-2H-naphthalen-1-one]	8.15	
OC1CCc2ccccc2C12CCN(CCc1ccccc1)CC2 (centres undefined) [1'-phenethylspiro[1,2,3,4-tetrahydronaphthalene-1,4'-(hexahydropyridine)]-2-ol]		< 5.00
O=C1c2cccc(F)c2CCC1C1CCN(CCc2ccccc2)CC1 (centres undefined) [5-Fluoro-2-(1-phenethyl-piperidin-4-yl)-3,4-dihydro-2H-naphthalen-1-one; hydrochloride]	8.30	
CC(C)(C)c1ccc(CN2CCC(C3CCc4ccccc4C3=O)CC2)cc1 (centres undefined) [2-[1-(4-tert-Butyl-benzyl)-piperidin-4-yl]-3,4-dihydro-2H-naphthalen-1-one]	7.59	6.39
O=C1c2ccccc2CCC1C1CCN(CCc2ccccc2)CC1 (centres undefined) [2-(1-Phenethyl-piperidin-4-yl)-3,4-dihydro-2H-naphthalen-1-one; hydrobromide]	8.00	6.22
O=C1c2ccccc2CCC12CCN(CC1CCCCC1)CC2 [1'-cyclohexylmethylspiro[1,2,3,4-tetrahydronaphthalene-2,4'-(hexahydropyridine)]-1-one; hydrochloride]	8.70	5.93
O=C1c2ccc(F)cc2CCC1C1CCN(CCc2ccccc2)CC1 (centres undefined) [6-Fluoro-2-(1-phenethyl-piperidin-4-yl)-3,4-dihydro-2H-naphthalen-1-one]		6.46
O=C1c2ccccc2CCC1C1CCN(Cc2ccc(C(F)(F)F)cc2)CC1 (centres undefined) [2-[1-(4-Trifluoromethyl-benzyl)-piperidin-4-yl]-3,4-dihydro-2H-naphthalen-1-one; hydrochloride]	7.72	
